Measurements published in PMC8041284, “Tunable Methacrylamides for Covalent Ligand Directed Release Chemistry” (Journal of the American Chemical Society, 2021).

target: BTK (Homo sapiens, UniProt Q06187); assay: biochemical; conditions: read-out: BTK inhibition (%)
Sequence (Q06187 402-655 limits assumed): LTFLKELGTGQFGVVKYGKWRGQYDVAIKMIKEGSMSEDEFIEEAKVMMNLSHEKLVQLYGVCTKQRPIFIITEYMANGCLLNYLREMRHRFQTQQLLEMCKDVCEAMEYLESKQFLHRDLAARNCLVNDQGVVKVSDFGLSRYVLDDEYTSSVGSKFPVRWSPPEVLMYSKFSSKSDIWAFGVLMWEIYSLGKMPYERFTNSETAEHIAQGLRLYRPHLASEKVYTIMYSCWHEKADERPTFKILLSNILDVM

Row | Compound | inhibition at 10 µM
1 | C[C@]12CCC(=O)C[C@@H]1CC[C@@H]1[C@@H]2CC[C@]2(C)[C@@H](O)CC[C@@H]12 [PCM-0214865] | -21%
2 | Cc1ccccc1-n1c(CF)nc2ccc(N)cc2c1=O [PCM-0214908] | 2.3%
3 | CC(C(=O)O)C(=O)O [PCM-0214910] | -6.2%
4 | CCCCCCC(=O)O[C@H]1CC[C@H]2[C@@H]3CCC4=CC(=O)CC[C@]4(C)[C@H]3CC[C@]12C [PCM-0214913] | 6.2%

same assay, conditions: read-out: BTK inhibition (%), 0.75 uM BTK, […] probe 3l, 15 min preincubation

Row | Compound | inhibition at 10 µM
5 | CO[C@@H]1[C@@H](O[C@@H]2O[C@H](C)[C@@H](O[C@H]3C[C@@](C)(O)[C@@H](O)[C@H](C)O3)[C@H](N(C)C)[C@H]2O)[C@@H](CC=O)C[C@@H](C)[C@@H](O[C@H]2CC[C@H](N(C)C)[C@@H](C)O2)/C=C/C=C/C[C@@H](C)OC(=O)C[C@H]1OC(C)=O [PCM-0214867] | 14%
6 | CC1(C)C2CCC1(C)C(O)C2 (stereo not shown) [PCM-0214868] | 1.6%
7 | COc1ccc2cc1Oc1ccc(cc1)C[C@H]1c3cc(c(OC)cc3CCN1C)Oc1c(O)c(OC)cc3c1[C@@H](C2)N(C)CC3 [PCM-0214869] | 0.8%
8 | O=C(O)c1ccc(Cl)cc1O [PCM-0214870] | -10.9%
9 | O=C(CBr)c1ccc(O)cc1 [PCM-0214871] | -28.8%
10 | C[C@H]1[C@H](C)CC[C@]2(C(=O)O[C@@H]3O[C@H](CO[C@@H]4O[C@H](CO)[C@@H](O[C@@H]5O[C@@H](C)[C@H](O)[C@@H](O)[C@H]5O)[C@H](O)[C@H]4O)[C@@H](O)[C@H](O)[C@H]3O)CC[C@]3(C)C(=CC[C@@H]4[C@@]5(C)C[C@@H](O)[C@H](O)[C@@](C)(CO)[C@@H]5CC[C@]43C)[C@H]12 [PCM-0214874] | -15.9%
11 | CC(C)=CCC[C@](C)(O)[C@H]1CC[C@]2(C)[C@@H]1[C@H](O)C[C@@H]1[C@@]3(C)CC[C@H](O)C(C)(C)[C@@H]3[C@@H](O)C[C@]12C [PCM-0214875] | 17.9%
12 | COc1ccc2cc1Oc1ccc(cc1)C[C@H]1c3cc(c(OC)cc3CCN1C)Oc1c(O)c(OC)cc3c1[C@H](C2)N(C)CC3 [PCM-0214877] | 27.2%
13 | C=C1CC[C@H]2C(=C)CC[C@H]3C(=C)C(=O)O[C@@H]3[C@@H]12 [PCM-0214878] | 32.7%
14 | COC(=O)c1ccc(O)c(OC)c1 [PCM-0214879] | -12.5%
15 | Oc1ccc2c(c1)OCO2 [PCM-0214880] | -3.9%
16 | CC1CNC(=O)NC1=O (stereo not shown) [PCM-0214881] | -4.7%
17 | Cc1ccc(C=C2C(=O)C3(C)CCC2C3(C)C)cc1 (stereo not shown) [PCM-0214882] | 5.4%
18 | NC(=O)[C@@H]1CC[C@@H]2CN1C(=O)N2OS(=O)(=O)O [PCM-0214883] | -9.3%
19 | CO[C@@H]1[C@@H](O[C@@H]2O[C@H](C)[C@@H](O[C@H]3C[C@@](C)(O)[C@@H](O)[C@H](C)O3)[C@H](N(C)C)[C@H]2O)[C@@H](CC=O)C[C@@H](C)[C@@H](O)/C=C/C=C/C[C@@H](C)OC(=O)C[C@H]1O [PCM-0214884] | 6.2%
20 | COC1=CC(=O)c2ccccc2C1=O [PCM-0214886] | 85.6%
21 | O=C(O)C1=C(CSc2nnnn2CS(=O)(=O)O)CS[C@@H]2[C@H](NC(=O)[C@H](O)c3ccccc3)C(=O)N12 [PCM-0214888] | 3.9%
22 | CCOC(=O)C1=C(COCCN)NC(C)=C(C(=O)OC)[C@@H]1c1ccccc1Cl [PCM-0214889] | -11.7%
23 | CC(C)(C)C(O)/C(=C\c1ccc(Cl)cc1)n1cncn1 (stereo not shown) [PCM-0214890] | -16.3%
24 | O=c1[nH]c(=O)c2[nH]cnc2[nH]1 [PCM-0214891] | -10.9%
25 | CO/N=C1\C[C@]2(C[C@@H]3C[C@@H](C/C=C(\C)C[C@@H](C)/C=C/C=C4\CO[C@@H]5[C@H](O)C(C)=C[C@@H](C(=O)O3)[C@]45O)O2)O[C@H](/C(C)=C/C(C)C)[C@H]1C [PCM-0214892] | 16.3%

Row | Compound | inhibition at 10 µM
26 | C#C[C@]1(O)CC[C@H]2[C@@H]3CCc4cc(OC5CCCC5)ccc4[C@H]3CC[C@@]21C [PCM-0214893] | -8.6%
27 | CC(C)N(CCCCOCC(=O)NS(C)(=O)=O)c1cnc(-c2ccccc2)c(-c2ccccc2)n1 [PCM-0214894] | 11.7%
28 | C=C[C@@H]1C[C@]1(NC(=O)[C@@H]1C[C@@H]2CN1C(=O)[C@H](C(C)(C)C)NC(=O)O[C@@H]1C[C@H]1CCCCCc1nc3ccc(OC)cc3nc1O2)C(=O)NS(=O)(=O)C1CC1 [PCM-0214895] | -13.2%
29 | Cc1ccc(S(=O)(=O)Nc2cc(-c3ccc(C#N)s3)ccc2C)cc1 [PCM-0214896] | -6.2%
30 | N=C1CCCN1Cc1[nH]c(=O)[nH]c(=O)c1Cl [PCM-0214897] | -10.1%
31 | CC(=O)[C@@]1(O)CC[C@H]2[C@@H]3C[C@H](C)C4=CC(=O)CC[C@]4(C)[C@H]3CC[C@@]21C [PCM-0214898] | -7.8%
32 | CO/N=C(\C(=O)N[C@@H]1C(=O)N2C(C(=O)[O-])=C(C[n+]3cccc4c3CCC4)CS[C@H]12)c1csc(N)n1 [PCM-0214899] | -4.7%
33 | Cn1nnnc1SCC1=C(C(=O)O)N2C(=O)[C@@H](NC(=O)[C@H](OC=O)c3ccccc3)[C@H]2SC1 [PCM-0214900] | 8.6%
34 | O=C(Nc1ccc(O)cc1)c1ccccc1O [PCM-0214902] | -10.9%
35 | NC(=O)c1[nH]cnc1N [PCM-0214903] | -43.6%
36 | CO/N=C(\C(=O)N[C@@H]1C(=O)N2C(C(=O)O)=C(C[N+]3(C)CCCC3)CS[C@H]12)c1csc(N)n1 [PCM-0214905] | -10.1%
37 | CCCOc1ccc2c(c1)CC[C@@H]1[C@@H]2CC[C@]2(C)[C@@H](OC)CC[C@@H]12 [PCM-0214906] | -24.1%
38 | CC(=O)OCC(=O)[C@@]1(O)CC[C@H]2[C@@H]3CCC4=CC(=O)CC[C@]4(C)[C@@]3(F)[C@@H](O)C[C@@]21C [PCM-0214907] | -8.3%
39 | CS(=O)(=O)c1cccc(C[C@H](NC(=O)c2c(Cl)cc3c(c2Cl)CCN(C(=O)c2ccc4ccoc4c2)C3)C(=O)O)c1 [PCM-0214914] | -4.7%
40 | CCNC(=O)[C@@H]1CCCN1C(=O)[C@H](CCCN=C(N)N)NC(=O)[C@H](CC(C)C)NC(=O)[C@@H](CC(C)C)NC(=O)[C@H](Cc1ccc(O)cc1)NC(=O)[C@H](CO)NC(=O)[C@H](Cc1c[nH]c2ccccc12)NC(=O)[C@H](Cc1cnc[nH]1)NC(=O)[C@@H]1CCC(=O)N1 [PCM-0214915] | -11.7%
41 | N#Cc1cc(-c2n[nH]c(-c3ccncc3)n2)ccn1 [PCM-0214916] | -18.7%
42 | CSc1ccc(C(=O)/C=C/c2cc(C)c(OC(C)(C)C(=O)O)c(C)c2)cc1 [PCM-0214917] | 7%
43 | C[C@@H](c1nc(-c2ccc(C#N)cc2)cs1)[C@](O)(Cn1cncn1)c1cc(F)ccc1F [PCM-0214918] | -14%
44 | Cn1cc(C(=O)[C@@H]2CCc3nc[nH]c3C2)c2ccccc21 [PCM-0214919] | -3.1%
45 | COC[C@H]1C[C@@H](c2ncc(-c3ccc4c(c3)COc3cc5c(ccc6[nH]c([C@@H]7CC[C@H](C)N7C(=O)[C@@H](NC(=O)OC)C(C)C)nc65)cc3-4)[nH]2)N(C(=O)[C@H](NC(=O)OC)c2ccccc2)C1 [PCM-0214920] | 56%
46 | OC(c1ccccc1)(c1ccccc1)C12CC[N+](CCOCc3ccccc3)(CC1)CC2 [PCM-0214921] | -34.2%

Row | Compound | inhibition at 10 µM
47 | CCOC(=O)c1cccc(N)c1 [PCM-0214922] | -2.3%
48 | COc1cccc(CCc2ccccc2OCC(CN(C)C)OC(=O)CCC(=O)O)c1 (stereo not shown) [PCM-0214923] | -22.6%
49 | O=C1CN(/N=C/C=C/c2ccc([N+](=O)[O-])o2)C(=O)N1 [PCM-0214924] | -7.8%
50 | O=c1[nH]c2ccccc2n1CCN1CCN(c2cccc(C(F)(F)F)c2)CC1 [PCM-0214925] | -34.2%
51 | C=C1/C(=C\C=C2/CCC[C@]3(C)[C@@H]([C@H](C)/C=C/[C@@H](O)C4CC4)CC[C@@H]23)C[C@@H](O)C[C@@H]1O [PCM-0214926] | 1.6%
52 | CCCNC[C@]1(O)[C@H](C)O[C@@H](O[C@H]2[C@H](C)[C@@H](O[C@@H]3O[C@H](C)C[C@H](N(C)C)[C@H]3O)[C@](C)(O)C[C@@H](C)CN[C@H](C)[C@@H](O)[C@](C)(O)[C@@H](CC)OC(=O)[C@@H]2C)C[C@@]1(C)OC [PCM-0214927] | -26.5%
53 | CC(C)(C)NC(=O)N[C@H](C(=O)N1C[C@H]2[C@@H]([C@H]1C(=O)NC(CC1CCC1)C(=O)C(N)=O)C2(C)C)C(C)(C)C (stereo partly shown) [PCM-0214929] | 8.6%
54 | CC(C)(C)c1cc(O)c(C(C)(C)C)cc1O [PCM-0214931] | 26.5%
55 | O=C(Cn1ccnc1[N+](=O)[O-])NCc1ccccc1 [PCM-0214934] | 3.1%
56 | C=C[C@H]1CN2CC[C@H]1C[C@@H]2[C@@H](O)c1ccnc2ccccc12 [PCM-0214935] | -17.1%
57 | COc1ccnc(C[S+]([O-])c2nc3ccc(-n4cccc4)cc3[nH]2)c1C (stereo not shown) [PCM-0214937] | 25.7%
58 | O=C(O)/C=C/c1ccc(O)cc1 [PCM-0214939] | -21.8%
59 | NC(=S)c1ccncc1 [PCM-0214940] | 7.8%
60 | CC(/C=C/C=C(\C)C(=O)O[C@@H]1O[C@H](CO[C@@H]2O[C@H](CO)[C@@H](O)[C@H](O)[C@H]2O)[C@@H](O)[C@H](O)[C@H]1O)=C\C=C\C=C(C)\C=C\C=C(/C)C(=O)O[C@@H]1O[C@H](CO[C@@H]2O[C@H](CO)[C@@H](O)[C@H](O)[C@H]2O)[C@@H](O)[C@H](O)[C@H]1O [PCM-0214941] | -8.6%
61 | COc1cc(/C=C/c2ccc(O)c(O)c2)cc(OC)c1 [PCM-0214943] | 36.6%
62 | O=C1C[C@@H](c2ccccc2)Oc2cc(O)cc(O)c21 [PCM-0214944] | 11.7%
63 | C=C1CC[C@H]2O[C@]2(C)CC[C@@H]2[C@@H]1CC2(C)C [PCM-0214945] | -11.7%
64 | CC1(C)[C@@H]2CC[C@@]1(C)[C@@H](O)C2 [PCM-0214946] | 3.1%
65 | Oc1ccc(CC2NCCc3cc(O)c(O)cc32)cc1 (stereo not shown) [PCM-0214948] | -5.4%
66 | COc1ccc(CC(=O)O)cc1OC [PCM-0214949] | -0.8%
67 | OC[C@H]1NC[C@H](O)[C@@H](O)[C@@H]1O [PCM-0214950] | -9.3%
